Data on one sequence can be found in patent US10736933B2, “Peptide-induced NK cell activation” (priority 2015, dated 2020).

Experiment [1] relates to KIR2DS2-positive NK cell clones. In words: Cytotoxicity of NK cell clones against peptide-loaded L721.174 cells (Live/Dead stain). It is filed as cell-based. To be noted: KIR2DS2-positive clones 4, 6, 9 only (not KIR2DS2-negative clone 27); compared to no peptide or VAPWNSFAL
Here is the method: L721.174 cells were incubated in the presence or absence of the peptides VAPWNSFAL (SEQ ID NO: 12) and the LNPSVAATL (SEQ ID NO: 5). The cells were then labeled with the cell tracker orange dye, and then cultured with KIR2DS2-positive NK cell clones (clones 4,6,9) or a KIR2DS2-negative NK cell clone (clone 27). Cytotoxicity was then determined using Live/Dead® fixable far-red stain.
With reference to FIG. 3, 3×10^5 L721.174 cells were incubated at 26° C. overnight in the presence or absence of the peptides VAPWNSFAL (SEQ ID NO: 12) and the LNPSVAATL (SEQ ID NO: 5). The cells were then labeled with the cell tracker orange dye, and then cultured for four hours with KIR2DS2-positive NK cell clones (clones 4,6,9) or a KIR2DS2-negative NK cell clone (clone 27). Cytotoxicity was then determined using Live/Dead® fixable far-red stain.

The subject of experiment [2] is NK cell line transfected with KIR2DS2. In words: DAP12 phosphorylation after KIR2DS2 immunoprecipitation (Western blot). It is filed as cell-based. To be noted: L721.174 cells with peptide at a concentration of 2004, NK cell line with KIR2DS2 for 5 minutes. The protocol: A. L721.174 cells were incubated with indicated peptides. The cells were then incubated with the NK cell line transfected with KIR2DS2. The cells were lysed and the KIR2DS2 was then immunoprecipitated from the mixture using the GL183 antibody coupled to protein-G beads. The immune precipitate was analysed by Western blotting using a phosphotyrosine antibody. The membrane was then stripped and reprobed with an antibody to DAP12 the molecule that transduces a positive signal from KIR2DS2. Shown are the regions on the blots at the level of DAP12 (12-15 kDa). B. L721.174 cells were incubated with indicated peptides. The cells were then incubated with the NK cell line transfected with KIR2DS2 or transfected with KIR2DL2. The cells were lysed in 1% NP-40 and then analysed by Western blotting using antibodies to pVav1 and then following stripping of the membrane to Vav1. Shown are Western blots around the 98 kDa region, and below them the corresponding densitometries for 3 independent experiments.
With reference to FIG. 6A, 1×10^6 L721.174 cells were incubated overnight at 26° C. with indicated peptides at a concentration of 2004. […] The immune precipitate was analysed by Western blotting using a phosphotyrosine antibody. […] The cells were lysed in 1% NP-40 and then analysed by Western blotting using antibodies to pVav1 and then following stripping of the membrane to Vav1. […]
For orientation: A western blot detects proteins with antibodies after separation by electrophoresis.

Take “LNPSVAATL [peptide recognized by KIR2DS2-positive NK cells]”: the “killing of L721.174 cell line” value in experiment [1] was “killed the L721.174 cell line to greater extent”. Further, in experiment [2], the “phosphorylation of DAP12” value is reported as “induces phosphorylation of DAP12”.
